These are literature values, as cited in patent US10154669B2, “Improving color and release profile of resin compositions comprising silver nanoparticles” (The Board of Regents of the University of Texas System, priority 2013, dated 2018).

The conditions of the data set: in water.

As to `C=C(C)C(=O)OC` [methyl methacrylate], the water solubility entry is given as “about 1.6 g in 100 g of water”.
